Here are results for one molecule from patent publication US20250221409A1, “COMPOSITION FOR POTENTIATING EFFECTS OF USEFUL SUBSTANCE” (KANEKA CORPORATION, priority 2022, published 2025).

In this experiment the test system is soybean leaves. As to the kind of experiment: Promotion of herbicide (PQ) effects: SPAD values of soybean leaves after spraying test solutions. Format: in vivo, soybean (variety Fukuyutaka). The following applies: Experimental Example 2-1 (FIG. 4); PQ 0.001 mass %, surfactin 0.001 mass %, lecithin 0.0005 mass %; 3 days after application. How it is done: Culture soil was filled into 9-cm vinyl pots, and soybean seeds (the variety: Fukuyutaka) were seeded at 3 grains/pot. Cultivation was performed in a glass greenhouse, and, after germination, strains were thinned to retain a strain in a pot. The test solutions shown in Table 4 were sprayed on leaves 3 seeks after seeding. The test solutions were prepared by dissolving the components in water. The SPAD (soil and plant analyzer development) values of the leaves were measured using a chlorophyll meter (product name: SPAD-502Plus, Konica Minolta, Inc.) 3 days after application of the test solutions. The SPAD values are used as the indicators showing the chlorophyll amount of plants.
Culture soil was filled into 9-cm vinyl pots, and soybean seeds (the variety: Fukuyutaka) were seeded at 3 grains/pot. Cultivation was performed in a glass greenhouse, and, after germination, strains were thinned to retain a strain in a pot. The test solutions shown in Table 5 were sprayed on leaves 3 seeks after seeding. The test solutions were prepared by dissolving the components in water. When lecithin was to be added, at the outset, lecithin was dissolved in water, and a biosurfactant was added to reach a given concentration. The SPAD values of the leaves were measured using a chlorophyll meter 3 days after application of the test solutions.

For `C[n+]1ccc(-c2cc[n+](C)cc2)cc1` [PQ, paraquat dichloride], the “SPAD values of the leaves” value is “not substantially different from the SPAD values of the control”.
